The text below walks through data of patent publication US10716756B2, “Compositions and methods for reducing reperfusion injury” (VIVACELLE BIO, INC., priority 2016, dated 2020).

Where “and” joins values, the source holds several entries; their conditions need not be identical. Equal entries are not always repeated.

Data set [1] concerns human neutrophils. The note with it: Simpkins et al. 1985; cited from earlier work.
The conditions of data set [2]: Battion et al. 1968; cited from earlier work.
A short description of data set [3]: Nitric oxide uptake/content of soybean oil emulsion by mass spectrometry.
Experimental: Some samples (1 ml each) were left open to air in 2.0 ml tubes for 30 minutes prior to dissolved gas analysis. In other experiments the emulsion was placed into a 15 ml tube. The headspace was filled with the gas under study and the gas was allowed to enter the emulsion by equilibration over 60 minutes with the tube on its side to increase the gas emulsion interaction. 50 μL drawn from each of these fluids were injected into a Sievers purge vessel at 37° C. containing 36 ml of a mildly acidic solution consisting of 32 ml of 1M HCL and 4 ml of 0.5M ascorbic acid. […] Signals generated at m/z=32 upon injection of RL and lipid emulsion samples were integrated using Peakfit and compared to those obtained with distilled water.
In another set of experiments we measured the uptake of nitric oxide by a commercially available 20% soybean oil emulsion, Liposyn III 20%. This emulsion contains 20% soybean oil, 1.2% egg phospholipids and 2.5% glycerin in water. Using NaOH pH was adjusted to 8.3. […] 100 ppm nitric oxide in helium was used to purge the hesdspace for two minutes taking care not to bubble the fluid. For sixty minutes the sample was allowed to reach gas-liquid equilibrium with the tube placed on its side to maximize gas-emulsion contact.
The uptake of NO and O2 by a commercial 20% soybean oil emulsion, Liposyn, was measured using mass spectrometry. […] To approximate field conditions, no warming or respiratory support was provided. Next, 55% of blood volume was removed within 2 minutes. […] The time of clinical death was defined as the cessation of respiration. […] In 5 mice a volume of Ringer's lactate equal to the volume of blood removed was administered via the internal jugular vein over 2 minutes immediately after the loss of chest wall movement. […] In 6 mice a volume of Ringer's lactate equal to the volume of blood removed was administered via the carotid artery over 2 minutes. […] In the next set of experiments, infusing Ringers' lactate was delayed for 3 minutes. […] A volume of emulsion equal to the volume of blood that had been removed was infused.
The conditions of data set [4]: 1 atm; from The Engineering Toolbox; cited from earlier work.
The conditions of data set [5]: anesthetic; cited from earlier work.
For data set [6] the following is noted: published value; cited from earlier work.

As for `C=CCN1CC[C@]23c4c5ccc(O)c4O[C@H]2C(=O)CC[C@]3(O)[C@H]1C5` [(+) naloxone], in data set [1], the “concentration range that produces anti-inflammatory effect” value is on record as 10^−5-10^−4 M.
Take `O=O` [Oxygen]: in data set [2], the “solubility in lipid relative to water” value was 4.41 times.
With `O` [Water], the “NO Content, single sample” value in data set [3] (100 ppm nitric oxide in helium headspace, 60 min equilibration) was 2.29 mol/L and 1.52 mol/L and 1.63 mol/L and 1.72 mol/L and 1.69 mol/L. Moreover, in data set [3] (100 ppm nitric oxide in helium headspace, 60 min equilibration, 5 samples), the “NO Content, Mean” value stood at 1.77 mol/L. The NO content in data set [3] (mass spectrometry, Example 7) is 2.12×10^−3±0.17 moles/L. Besides, the “Oxygen Content at 25° C. and Sea level Pressure” value in data set [4] is on record as 8.3 mg/L.
As for `[Xe]` [Xenon], in data set [5], the “minimum alveolar concentration (MAC)” value is 71%.
With hemoglobin, in data set [6], the oxygen release time is 17.5 ms.
